pIC50: −log10 of the molar value. Values belong to the molecule of their own block, whether it stands above or below them.
Legend:
[1] = biological target: T1, Cyclin-dependent kinase 4/cyclin D (Homo sapiens, UniProt P11802)
Description: Inhibition of Cyclin-dependent kinase 4-cyclinD

[2] = biological target: Cyclin-dependent kinase 2/cyclin A (Homo sapiens, UniProt P24941)
Description: Inhibition of Cyclin dependent kinase 2-cyclin A

MDA-MB-435 [3] = assay: Inhibitory concentration was measured by the incorporation of [14C]-thymidine in (human breast carcinoma) MDA-MB-435 cell line; type: functional, cell-based
MDA-MB-435 [4] = assay: Inhibitory concentration was measured by the incorporation of [14C]thymidine in (human breast carcinoma) MDA-MB-435; type: functional, cell-based
[5] = biological target: Fibroblast growth factor receptor (Homo sapiens, UniProt P22607+P11362+P22455+P21802); assay: Inhibition of Fibroblast growth factor receptor; type: protein assay
MDA-MB-468 [6] = assay: Inhibitory concentration was measured by the incorporation of [14C]thymidine in (human breast carcinoma) MDA-MB-468 cell line; type: functional, cell-based
[7] = Inhibition of PDGF receptor
[8] = biological target: Cyclin-dependent kinase 2/cyclin E (Homo sapiens, UniProt P24941); assay: Inhibition of Cyclin dependent kinase 2-cyclin E; type: protein-complex assay
MDA-MB-468 [9] = assay: In vitro inhibitory concentration was measured by the incorporation of [14C]thymidine in (human breast carcinoma) MDA-MB-468 cell line; type: functional, cell-based
MDA-MB-435 [10] = assay: In vitro inhibitory concentration was measured by the incorporation of [14C]thymidine in (human breast carcinoma) MDA-MB-435 cell line; type: functional, cell-based
[11] = biological target: T1, Cyclin-dependent kinase 4/cyclin D; assay: Inhibition of [gamma-32P]-ATP binding to Cyclin dependant kinase 4-cyclinD; type: protein-complex assay
[12] = Inhibition of Cyclin dependent kinase 2-cyclinA

SMILES: Cc1c(Br)c(=O)n(C2CCCC2)c2nc(Nc3ccccn3)ncc12
pIC50 [1]: < 5.30

SMILES: Cc1c(Br)c(=O)n(C2CCCC2)c2nc(Nc3ccc(N4CCCNCC4)cn3)ncc12
pIC50 [2]: < 5.30
pIC50 [1]: < 5.30

SMILES: CC(C)n1c(=O)ccc2cnc(Nc3ccc(N4CCNCC4)cn3)nc21
pIC50 [1]: < 5.30

pIC50 (MDA-MB-435 [3]): 7.15
SMILES: CC(=O)c1c(C)c2cnc(Nc3ccc(N4CCCNCC4)cn3)nc2n(C2CCCC2)c1=O

pIC50 [2]: 5.42
pIC50 (MDA-MB-435 [3]): 6.48
pIC50 [1]: 7.89
SMILES: COCc1cc2cnc(Nc3ccc(N4CCNCC4)cn3)nc2n(C2CCCC2)c1=O

pIC50 (MDA-MB-435 [4]): 6.24
SMILES: Cc1c(Br)c(=O)n(C2CCCC2)c2nc(Nc3ccc(N4CC(C)NC(C)C4)cn3)ncc12 (stereo unspecified)

pIC50 (MDA-MB-435 [4]): 6.38
SMILES: CC(=O)c1c(C)c2cnc(Nc3ccc(N4CCNC(C)(C)C4)cn3)nc2n(C2CCCC2)c1=O

IC50 [5]: > 5000 nM
pIC50 [2]: < 5.30
pIC50 (MDA-MB-468 [6]): < 5.52
pIC50 [7]: < 5.30
pIC50 (MDA-MB-435 [3]): 7.05
pIC50 [8]: < 5.30
SMILES: O=c1c(Br)cc2cnc(Nc3ccc(N4CCNCC4)cn3)nc2n1C1CCCC1

pIC50 (MDA-MB-435 [4]): 5.71
SMILES: CC(=O)c1c(C)c2cnc(Nc3ccc(N4CCCCC4)cn3)nc2n(C2CCCC2)c1=O

pIC50 (MDA-MB-435 [3]): 6.70
SMILES: CC(=O)c1c(C)c2cnc(Nc3ccc(N4CCC(O)CC4)cn3)nc2n(C2CCCC2)c1=O

pIC50 (MDA-MB-435 [4]): 6.24
SMILES: CC(=O)c1c(C)c2cnc(Nc3ccc(N4CC(C)NC(C)C4)cn3)nc2n(C2CCCC2)c1=O (stereo unspecified)

pIC50 [2]: < 5.30
pIC50 (MDA-MB-435 [3]): 5.97
pIC50 [1]: 7.66
SMILES: CCc1cc2cnc(Nc3ccc(N4CCNCC4)cn3)nc2n(C2CCCC2)c1=O

pIC50 (MDA-MB-435 [3]): 5.96
SMILES: O=c1c(F)cc2cnc(Nc3ccc(N4CCNCC4)cn3)nc2n1C1CCCC1

pIC50 (MDA-MB-435 [3]): 5.67
SMILES: COCCOCc1cc2cnc(Nc3ccc(N4CCNCC4)cn3)nc2n(C2CCCC2)c1=O

pIC50 (MDA-MB-468 [9]): 5.96
pIC50 [2]: 6.64
pIC50 (MDA-MB-435 [10]): 7.52
SMILES: CC(=O)c1c(C)c2cnc(Nc3ccc(N4CCNCC4)cc3)nc2n(C2CCCC2)c1=O

pIC50 [2]: < 5.30
pIC50 (MDA-MB-435 [3]): 6.72
pIC50 [1]: 7.72
SMILES: Nc1cc2cnc(Nc3ccc(N4CCNCC4)cn3)nc2n(C2CCCC2)c1=O

pIC50 (MDA-MB-435 [3]): 6.47
SMILES: CC(=O)c1c(C)c2cnc(Nc3ccc(N4CCC(N)C4)cn3)nc2n(C2CCCC2)c1=O (stereo unspecified)

pIC50 (MDA-MB-435 [4]): 5.56
SMILES: CC(=O)c1cc2cnc(Nc3ccc(N4CCNCC4)cn3)nc2n(C2CCCC2)c1=O

pIC50 (MDA-MB-435 [4]): 5.85
SMILES: Cc1c(Br)c(=O)n(C2CCCC2)c2nc(Nc3ccc(N4CCC(O)CC4)cn3)ncc12

pIC50 (MDA-MB-435 [3]): 6.54
SMILES: Cc1cc2cnc(Nc3ccc(N4CCNCC4)cn3)nc2n(C2CCCC2)c1=O

pIC50 (MDA-MB-435 [3]): 6.25
SMILES: O=c1c(CO)cc2cnc(Nc3ccc(N4CCNCC4)cn3)nc2n1C1CCCC1

pIC50 [1]: 7.31
SMILES: CCOC(=O)c1c(C)c2cnc(Nc3ccc(N4CCNCC4)cn3)nc2n(C2CCCC2)c1=O

pIC50 (MDA-MB-435 [3]): 6.00
SMILES: CCOCc1cc2cnc(Nc3ccc(N4CCNCC4)cn3)nc2n(C2CCCC2)c1=O

pIC50 (MDA-MB-435 [4]): 6.66
SMILES: CC(=O)c1c(C)c2cnc(Nc3ccc(N4CCOCC4)cn3)nc2n(C2CCCC2)c1=O

pIC50 (MDA-MB-435 [3]): 6.49
SMILES: CC(=O)c1c(C)c2cnc(Nc3ccc(N4CCN(C)CC4)cn3)nc2n(C2CCCC2)c1=O

pIC50 [11]: 7.43
SMILES: CCOCCOc1cc2cnc(Nc3ccc(N4CCNCC4)cn3)nc2n(C2CCCC2)c1=O

pIC50 [12]: 7.92
SMILES: O=c1ccc2cnc(Nc3ccccc3)nc2n1C1CCCC1

pIC50 (MDA-MB-468 [6]): < 5.52
pIC50 (MDA-MB-435 [3]): 6.80
SMILES: CC(=O)c1c(C)c2cnc(Nc3ccc(N4CCNCC4)cn3)nc2n(C2CCCC2)c1=O [PALBOCICLIB]

pIC50 [2]: 5.69
pIC50 [1]: 7.29
SMILES: COCCN(CCOC)c1ccc(Nc2ncc3c(C)c(C(C)=O)c(=O)n(C4CCCC4)c3n2)nc1

SMILES: O=c1c(Br)cc2cnc(Nc3ccc(N4CCNCC4)cc3)nc2n1C1CCCC1
pIC50 ([5]; read-out: IC50): 7.10
pIC50 (MDA-MB-468 [6]): 6.22
pIC50 (MDA-MB-435 [3]): 7.70

pIC50 [2]: < 5.30
pIC50 (MDA-MB-435 [10]): 5.69
pIC50 [1]: 7.52
SMILES: CC(=O)c1c(C)c2cnc(Nc3ccc(N4C(C)COCC4C)cn3)nc2n(C2CCCC2)c1=O (stereo unspecified)

Source: ChEMBL document CHEMBL1143566, “Discovery of a potent and selective inhibitor of cyclin-dependent kinase 4/6” (J Med Chem, 2005)
